The record followed here is US5948807A (priority 1997, dated 1999).

Counter-ions that a name gives are not always drawn.

Sequence of kappa opioid receptor (P41145 whole entry): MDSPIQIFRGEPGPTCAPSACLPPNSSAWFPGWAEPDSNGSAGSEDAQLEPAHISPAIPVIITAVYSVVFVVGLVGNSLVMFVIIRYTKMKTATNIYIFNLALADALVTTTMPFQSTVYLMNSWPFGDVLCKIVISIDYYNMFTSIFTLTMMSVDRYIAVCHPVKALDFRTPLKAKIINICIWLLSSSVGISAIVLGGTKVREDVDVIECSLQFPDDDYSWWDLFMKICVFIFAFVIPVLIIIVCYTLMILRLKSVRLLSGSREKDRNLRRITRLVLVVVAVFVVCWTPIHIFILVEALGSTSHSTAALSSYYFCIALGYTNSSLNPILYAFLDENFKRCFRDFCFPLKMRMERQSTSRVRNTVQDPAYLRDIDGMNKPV
Sequence of mu opioid receptor (P35372 whole entry): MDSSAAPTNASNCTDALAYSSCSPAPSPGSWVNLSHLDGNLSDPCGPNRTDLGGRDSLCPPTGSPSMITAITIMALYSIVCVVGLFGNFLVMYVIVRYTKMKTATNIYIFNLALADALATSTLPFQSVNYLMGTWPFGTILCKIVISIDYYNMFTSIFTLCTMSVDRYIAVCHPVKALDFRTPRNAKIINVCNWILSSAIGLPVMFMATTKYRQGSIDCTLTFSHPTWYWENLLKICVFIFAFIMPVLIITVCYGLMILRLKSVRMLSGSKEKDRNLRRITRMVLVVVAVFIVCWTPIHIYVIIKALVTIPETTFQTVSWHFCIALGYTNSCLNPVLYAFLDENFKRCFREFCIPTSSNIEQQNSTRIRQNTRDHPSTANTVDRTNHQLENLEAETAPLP

In the first assay the target is DAT, dopamine transporter (Homo sapiens, UniProt Q01959). The assay can be described thus: radioligand binding, DAT ([^3 H]WIN35,428). As to conditions: radioligand [^3 H]WIN35,428; racemic; spiroindanamines as hydrochlorides; read-out: Affinity (IC50) DAT ([^3 H]WIN35,428).
Sequence of DAT, dopamine transporter (Q01959 whole entry): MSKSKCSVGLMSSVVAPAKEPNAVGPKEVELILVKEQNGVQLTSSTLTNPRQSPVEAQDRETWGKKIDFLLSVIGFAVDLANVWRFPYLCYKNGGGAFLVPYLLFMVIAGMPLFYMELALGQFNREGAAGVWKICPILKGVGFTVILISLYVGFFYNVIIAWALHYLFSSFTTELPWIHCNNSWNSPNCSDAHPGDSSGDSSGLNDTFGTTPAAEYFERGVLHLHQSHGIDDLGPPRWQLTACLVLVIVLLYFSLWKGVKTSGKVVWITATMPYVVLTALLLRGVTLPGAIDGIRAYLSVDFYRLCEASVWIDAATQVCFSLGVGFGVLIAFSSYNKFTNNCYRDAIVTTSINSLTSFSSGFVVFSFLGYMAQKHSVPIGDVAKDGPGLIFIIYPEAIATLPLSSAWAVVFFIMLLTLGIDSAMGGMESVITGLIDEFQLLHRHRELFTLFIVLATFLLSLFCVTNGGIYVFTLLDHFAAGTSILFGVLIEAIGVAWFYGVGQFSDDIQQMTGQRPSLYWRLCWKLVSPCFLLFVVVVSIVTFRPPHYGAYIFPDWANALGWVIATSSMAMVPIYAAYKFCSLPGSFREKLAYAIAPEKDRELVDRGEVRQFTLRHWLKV
The term IC50 denotes the point on the concentration scale where inhibition reaches its midpoint. For `COc1ccc2c(c1)C1(CCNC1)CC2c1ccc(Cl)c(Cl)c1` (racemic) [Compound 3c, 3-(3,4-Dichlorophenyl)-6-methoxyspiro[indan-1,3'-pyrrolidine]], the half-maximal inhibitory concentration (IC50) stood at 150 nM.

Take `c1ccc(C2CC3(CCNC3)c3ccccc32)cc1` (racemic) [Compound 3a, 3-Phenylspiro[indan-1,3'-pyrrolidine]]: the concentration for half-maximal inhibition (IC50) came out at 200 nM.

In the case of `c1ccc(C2CC3(CCN(CC4CC4)C3)c3ccccc32)cc1` (racemic) [Compound 4a, 1'-Cyclopropylmethyl-3-phenylspiro[indan-1,3'-pyrrolidine] hydrochloride], the IC50 was 2900 nM.

Regarding `Oc1ccc2c(c1)C1(CCNC1)CC2c1ccc(Cl)c(Cl)c1` (racemic) [Compound 3d, 3-(3,4-Dichlorophenyl)-6-hydroxyspiro[indan-1,3'-pyrrolidine]], the IC50 was determined as 730 nM.

The next assay addresses kappa opioid receptor (Homo sapiens, UniProt P41145). The assay can be described thus: biochemical.
Conditions: not given
Type of assay: binding.
`O=C1C[C@@]2(C[C@@H](c3ccccc3)c3ccccc32)C(=O)N1` (relative stereo) [Compound 1a, cis-3-Phenylspiro[indan-1,3'-pyrrolidine]-2',5'-dione] displayed a half-inhibitory concentration (IC50) of more than 100 µM.

Take `COc1ccc2c(c1)C1(CCNC1)CC2c1ccc(Cl)c(Cl)c1` (racemic) [Compound 3c, 3-(3,4-Dichlorophenyl)-6-methoxyspiro[indan-1,3'-pyrrolidine]]: inhibition was half-maximal at 80 µM (IC50).

`c1ccc(C2CC3(CCNC3)c3ccccc32)cc1` (racemic) [Compound 3a, 3-Phenylspiro[indan-1,3'-pyrrolidine]] came in with an IC50 of 10 µM.

Compound `c1ccc(C2CC3(CCN(CC4CC4)C3)c3ccccc32)cc1` (racemic) [Compound 4a, 1'-Cyclopropylmethyl-3-phenylspiro[indan-1,3'-pyrrolidine] hydrochloride] had a concentration for half-maximal inhibition (IC50) of 1 µM.

In turn, `Oc1ccc2c(c1)C1(CCNC1)CC2c1ccc(Cl)c(Cl)c1` (racemic) [Compound 3d, 3-(3,4-Dichlorophenyl)-6-hydroxyspiro[indan-1,3'-pyrrolidine]] showed an IC50 of 1.52 µM.

`COc1ccc2c(c1)C1(CC(=O)NC1=O)CC2c1ccc(Cl)c(Cl)c1` (racemic) [Compound 1c, 3-(3,4-Dichlorophenyl)-6-methoxyspiro[indan-1,3'-pyrrolidin]-2',5'-dione]: the IC50 was more than 100 µM.

Another assay relates to serotonin transporter. The assay can be described thus: binding at serotonin transporter, comparison with SSRIs. To be noted: vs citalopram, sertraline and fluoxetine.
As for `COc1ccc2c(c1)C1(CCNC1)CC2c1ccc(Cl)c(Cl)c1` (racemic) [Compound 3c, 3-(3,4-Dichlorophenyl)-6-methoxyspiro[indan-1,3'-pyrrolidine]], the “affinity for the serotonin transporter relative to SSRIs” value was “comparable to or higher than that of other specific serotonin re-uptake inhibitors (SSRIs)”.

Turning to `c1ccc(C2CC3(CCNC3)c3ccccc32)cc1` (racemic) [Compound 3a, 3-Phenylspiro[indan-1,3'-pyrrolidine]], the “affinity for the serotonin transporter relative to SSRIs” value is recorded as “comparable to or higher than that of other specific serotonin re-uptake inhibitors (SSRIs)”.

The next assay addresses mu opioid receptor (Homo sapiens, UniProt P35372). The assay is described as follows: biochemical. Type of assay: binding.
Conditions: not given
In turn, `O=C1C[C@@]2(C[C@@H](c3ccccc3)c3ccccc32)C(=O)N1` (relative stereo) [Compound 1a, cis-3-Phenylspiro[indan-1,3'-pyrrolidine]-2',5'-dione] displayed a concentration for half-maximal inhibition (IC50) of 100 µM.

With `COc1ccc2c(c1)C1(CCNC1)CC2c1ccc(Cl)c(Cl)c1` (racemic) [Compound 3c, 3-(3,4-Dichlorophenyl)-6-methoxyspiro[indan-1,3'-pyrrolidine]], half-maximal inhibition (IC50) required 5 µM.

`c1ccc(C2CC3(CCNC3)c3ccccc32)cc1` (racemic) [Compound 3a, 3-Phenylspiro[indan-1,3'-pyrrolidine]]: the midpoint of inhibition, the IC50, lay at 0.5 µM.

As for `c1ccc(C2CC3(CCN(CC4CC4)C3)c3ccccc32)cc1` (racemic) [Compound 4a, 1'-Cyclopropylmethyl-3-phenylspiro[indan-1,3'-pyrrolidine] hydrochloride], the IC50 is 0.98 µM.

For `Oc1ccc2c(c1)C1(CCNC1)CC2c1ccc(Cl)c(Cl)c1` (racemic) [Compound 3d, 3-(3,4-Dichlorophenyl)-6-hydroxyspiro[indan-1,3'-pyrrolidine]], the IC50 stood at 2.9 µM.

Take `COc1ccc2c(c1)C1(CC(=O)NC1=O)CC2c1ccc(Cl)c(Cl)c1` (racemic) [Compound 1c, 3-(3,4-Dichlorophenyl)-6-methoxyspiro[indan-1,3'-pyrrolidin]-2',5'-dione]: the 50% inhibitory concentration (IC50) was 100 µM.

In the next assay the target is SERT-2, paroxetine binding site on the serotonin transporter (Homo sapiens, UniProt P31645). The assay can be described thus: biochemical.
Sequence of SERT-2, paroxetine binding site on the serotonin transporter (P31645 whole entry): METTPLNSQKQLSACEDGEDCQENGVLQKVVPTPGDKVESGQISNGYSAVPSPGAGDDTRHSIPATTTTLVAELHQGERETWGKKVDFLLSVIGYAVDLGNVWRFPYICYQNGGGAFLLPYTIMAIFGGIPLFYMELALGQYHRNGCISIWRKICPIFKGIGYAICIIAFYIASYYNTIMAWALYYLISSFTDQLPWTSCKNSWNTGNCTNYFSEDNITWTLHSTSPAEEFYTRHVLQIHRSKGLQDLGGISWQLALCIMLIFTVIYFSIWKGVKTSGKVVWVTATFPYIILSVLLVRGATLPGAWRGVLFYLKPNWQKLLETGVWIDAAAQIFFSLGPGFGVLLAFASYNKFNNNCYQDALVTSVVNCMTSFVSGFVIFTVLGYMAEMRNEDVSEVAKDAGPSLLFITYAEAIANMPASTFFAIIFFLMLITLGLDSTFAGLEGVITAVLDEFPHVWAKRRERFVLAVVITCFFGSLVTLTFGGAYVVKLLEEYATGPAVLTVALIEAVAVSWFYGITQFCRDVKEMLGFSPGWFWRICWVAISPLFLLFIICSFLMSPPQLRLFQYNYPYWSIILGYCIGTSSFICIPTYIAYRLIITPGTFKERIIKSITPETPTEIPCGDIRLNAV
Conditions: not given
As for `O=C1C[C@@]2(C[C@@H](c3ccccc3)c3ccccc32)C(=O)N1` (relative stereo) [Compound 1a, cis-3-Phenylspiro[indan-1,3'-pyrrolidine]-2',5'-dione], the IC50 was more than 100000 nM.

Take `COc1ccc2c(c1)C1(CCNC1)CC2c1ccc(Cl)c(Cl)c1` (racemic) [Compound 3c, 3-(3,4-Dichlorophenyl)-6-methoxyspiro[indan-1,3'-pyrrolidine]]: the IC50 came to 400 nM and the “affinity at SERT-2 (in words)” value is recorded as “moderate to weak affinity”.

As to `c1ccc(C2CC3(CCNC3)c3ccccc32)cc1` (racemic) [Compound 3a, 3-Phenylspiro[indan-1,3'-pyrrolidine]], the IC50 was determined as 2500 nM and the “affinity at SERT-2 (in words)” value is on record as “moderate to weak affinity”.

Take `c1ccc(C2CC3(CCN(CC4CC4)C3)c3ccccc32)cc1` (racemic) [Compound 4a, 1'-Cyclopropylmethyl-3-phenylspiro[indan-1,3'-pyrrolidine] hydrochloride]: the IC50 stood at 2000 nM.

In turn, `Oc1ccc2c(c1)C1(CCNC1)CC2c1ccc(Cl)c(Cl)c1` (racemic) [Compound 3d, 3-(3,4-Dichlorophenyl)-6-hydroxyspiro[indan-1,3'-pyrrolidine]] came in with an IC50 of 300 nM.

Consider `COc1ccc2c(c1)C1(CC(=O)NC1=O)CC2c1ccc(Cl)c(Cl)c1` (racemic) [Compound 1c, 3-(3,4-Dichlorophenyl)-6-methoxyspiro[indan-1,3'-pyrrolidin]-2',5'-dione], for which the IC50 is more than 100000 nM; the “affinity at SERT-2 (in words)” value was “higher affinity for SERT-2 than the basic spiroindanamines 3d and 4a”.

The target in another assay is SERT-1, cocaine binding site on the serotonin transporter (Homo sapiens, UniProt P31645). The assay is described as follows: biochemical.
Sequence of SERT-1, cocaine binding site on the serotonin transporter (P31645 whole entry): as above
Conditions: not given
As to `O=C1C[C@@]2(C[C@@H](c3ccccc3)c3ccccc32)C(=O)N1` (relative stereo) [Compound 1a, cis-3-Phenylspiro[indan-1,3'-pyrrolidine]-2',5'-dione], the IC50 worked out at 26700 nM.

For the compound `COc1ccc2c(c1)C1(CCNC1)CC2c1ccc(Cl)c(Cl)c1` (racemic) [Compound 3c, 3-(3,4-Dichlorophenyl)-6-methoxyspiro[indan-1,3'-pyrrolidine]], the IC50 is 2 nM and the “affinity for SERT-1 (in words)” value is listed as “low nanomolar affinity”.

In the case of `c1ccc(C2CC3(CCNC3)c3ccccc32)cc1` (racemic) [Compound 3a, 3-Phenylspiro[indan-1,3'-pyrrolidine]], the IC50 was determined as 10 nM and the “affinity for SERT-1 (in words)” value was “low nanomolar affinity”.

For the compound `c1ccc(C2CC3(CCN(CC4CC4)C3)c3ccccc32)cc1` (racemic) [Compound 4a, 1'-Cyclopropylmethyl-3-phenylspiro[indan-1,3'-pyrrolidine] hydrochloride], the IC50 amounted to 2410 nM.

The compound `Oc1ccc2c(c1)C1(CCNC1)CC2c1ccc(Cl)c(Cl)c1` (racemic) [Compound 3d, 3-(3,4-Dichlorophenyl)-6-hydroxyspiro[indan-1,3'-pyrrolidine]] returned an IC50 of 750 nM.

`COc1ccc2c(c1)C1(CC(=O)NC1=O)CC2c1ccc(Cl)c(Cl)c1` (racemic) [Compound 1c, 3-(3,4-Dichlorophenyl)-6-methoxyspiro[indan-1,3'-pyrrolidin]-2',5'-dione] returned an IC50 of 250 nM.
